Assay results as given in publication PMC11258486, “Phase 1 dose escalation study of the MDM2 inhibitor milademetan as monotherapy and in combination with azacitidine in patients with myeloid malignancies” (Cancer Medicine, 2024).
Structures can show the parent of a compound that is named as a salt.

Tested on: Macrophage inhibitory cytokine‐1 (MIC‐1)
Assay: Serum MIC‐1 pharmacodynamics
Assay type: in vivo, human
Settings: monotherapy, all cohorts
Description: Macrophage inhibitory cytokine‐1 (MIC‐1) is a target of p53 transcriptional activation,[25] and, therefore, change in serum MIC‐1 levels was included as a PD endpoint, measured at multiple time points.

CC1(C)CCC2(CC1)N[C@@H](C(=O)N[C@@H]1CC[C@@H](C(N)=O)OC1)[C@H](c1ccnc(Cl)c1F)[C@]21C(=O)Nc2cc(Cl)ccc21 [Milademetan monotherapy, milademetan tosylate hydrate]
serum MIC‐1, mean (SD) fold change from baseline (Cycle 1 Day 8 (N = 53)): 6.4 (5.8) fold change
serum MIC‐1, mean (SD) fold change from baseline (Cycle 1 Day 15 (N = 49)): 5.1 (4.2) fold change
serum MIC‐1, mean (SD) fold change from baseline (Cycle 1 Days 21 through 22): 4.1 (3.3) fold change
